Like-named read-outs stand apart in the source and are kept apart here.
Legend:
[1] = tested on: CFA induced PGE2 release in the ipsilateral inflamed hind paw of human KI mice (expressing human PTGES); assay: PGE2 measurements in CFA inflammation model using humanized KI mice; format: in vivo; conditions: p.o., single dose, hind paw 48 h after CFA, 1 h after dose
Procedure: PGE2 Measurements in CFA Inflammation Model Using Humanized KI Mice
Female transgenic mice expressing the human PTGES enzyme (Taconic, Xu et al. 2008) received intraplantar injection of complete Freund's adjuvant (CFA) (30 μl, 1 mg/ml, Sigma) into the left hind paw under isoflurane anesthesia. […] At termination of the experiments (48 h after CFA, 1 h after dose), hind paw tissue is collected for analysis of PGE2 levels (ELISA, Cayman Chemical item no. 514531). […] Statistical analysis is performed with one-way analysis of variance, followed by Bonferroni's multiple comparison test vs. vehicle controls using the GraphPad PRISM software, *p<0.05, **p<0.01.

[2] = Unbound plasma concentration in human KI mice of the CFA model; format: in vivo; conditions: female, human PTGES knock-in (humanized KI, transgenic) mice, mouse, plasma, oral, read-out: Plasma concentration Cplasma-unbound
Procedure: At termination of the experiments (48 h after CFA, 1 h after dose), hind paw tissue is collected for analysis of PGE2 levels (ELISA, Cayman Chemical item no. 514531). […] Statistical analysis is performed with one-way analysis of variance, followed by Bonferroni's multiple comparison test vs. vehicle controls using the GraphPad PRISM software, *p<0.05, **p<0.01.

human PTGES = human PTGES (Homo sapiens (Human), UniProt O14684); assay: Human PTGES biochemical enzyme inhibition assay (conversion of PGH2 to PGE2, TR-FRET); conditions: Enzymatic conversion of PGH2 to PGE2; read-out: Human PTGES IC50
Sequence of human PTGES (O14684 whole entry): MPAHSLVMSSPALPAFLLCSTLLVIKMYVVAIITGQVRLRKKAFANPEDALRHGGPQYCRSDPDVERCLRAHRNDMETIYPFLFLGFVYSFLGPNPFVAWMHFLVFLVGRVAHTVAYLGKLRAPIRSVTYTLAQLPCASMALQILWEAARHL
Procedure, shortened: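 FLAG-tagged human PTGES from Hi-5 insect cells preincubated 15–20 min with compound in pH 7.2 phosphate buffer with 2.5 mM reduced glutathione; reaction started with 8 nM PGH2 final, stopped with SnCl2/KF.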

Row | SMILES | IC50 (human PTGES) | other results
1 | Cc1c(NC(=O)C(c2ccc(-c3cncc(Cl)c3)cc2)C2CCCC2)cccc1C(C)CC(=O)O (single isomer, unassigned; stereoisomer 2) [Example 87, 3-[3-({[4-(5-Chloropyridin-3-yl)phenyl](cyclopentyl)acetyl}amino)-2-methylphenyl]butanoic acid, Stereoisomer 2] | – | % inhibition of PGE2 in vivo vs vehicle ([1]; 1 mg/kg): 43%; % inhibition of PGE2 in vivo vs vehicle ([1]; 3 mg/kg): 65%; % inhibition of PGE2 in vivo vs vehicle ([1]; 10 mg/kg): 67%; concentration at 1 h ([2]; 1 mg/kg): 25 nM; concentration at 1 h ([2]; 3 mg/kg): 75 nM; concentration at 1 h ([2]; 10 mg/kg): 172 nM
2 | Cc1c(CCC(=O)O)cccc1NC(=O)[C@@H](c1ccc(-c2cncc(C(F)(F)F)c2)cc1)C1CCCC1 [Example 2, (−) (R) 3-{3-[(Cyclopentyl{4-[5-(trifluoromethyl)pyridin-3-yl]phenyl}acetyl)amino]-2-methylphenyl}propanoic acid] | – | % inhibition of PGE2 in vivo vs vehicle ([1]; 1 mg/kg): 37%; % inhibition of PGE2 in vivo vs vehicle ([1]; 3 mg/kg): 75%; % inhibition of PGE2 in vivo vs vehicle ([1]; 10 mg/kg): 94%; concentration at 1 h ([2]; 1 mg/kg): 21 nM; concentration at 1 h ([2]; 3 mg/kg): 62 nM; concentration at 1 h ([2]; 10 mg/kg): 190 nM
3 | CCOc1cncc(-c2ccc(C(C(=O)Nc3cccc(CCC(=O)O)c3C)C3CCCC3)cc2F)c1 (racemic) [Example 46, (R/S) 3-[3-({Cyclopentyl[4-(5-ethoxypyridin-3-yl)-3-fluorophenyl]acetyl}amino)-2-methylphenyl]propanoic acid] | 55.3 nM | –
4 | Cc1ncc(-c2ccc(C(C(=O)Nc3cccc(C(C)CC(=O)O)c3C)C3CCCC3)cc2)cc1Cl (mixture of isomers) [Example 97, (3R/S)-3-[3-({(2R/S)-2-[4-(5-Chloro-6-methylpyridin-3-yl)phenyl]-2-cyclopentylacetyl}amino)-2-methylphenyl]butanoic acid] | 13 nM | –
5 | Cc1c(NC(=O)C(c2ccc(-c3cncc(F)c3)cc2)C2CCCC2)cccc1C(CC(=O)O)C1CC1 (mixture of isomers) [Example 112, (3R/S)-3-[3-({(2R/S)-2-cyclopentyl-2-[4-(5-fluoropyridin-3-yl)phenyl]acetyl}amino)-2-methylphenyl]-3-cyclopropylpropanoic acid] | 51.9 nM | –
6 | Cc1c(CCC(=O)O)cccc1NC(=O)C(c1ccc(-c2cncc(C(F)(F)F)c2)c(F)c1)C1CCC1 (single isomer, unassigned; (-)) [Example 208, (−) 3-{3-[(cyclobutyl{3-fluoro-4-[5-(trifluoromethyl)pyridin-3-yl]phenyl}acetyl)amino]-2-methylphenyl}propanoic acid, Single Enantiomer] | 28.1 nM | –
7 | Cc1cc(-c2ccc(C(C(=O)Nc3cccc(CCC(=O)O)c3C)C3CCCC3)cc2)cnc1C (racemic) [Example 27, (R/S) 3-[3-({Cyclopentyl[4-(5,6-dimethylpyridin-3-yl)phenyl]acetyl}amino)-2-methylphenyl]propanoic acid] | 90.3 nM | –
8 | Cc1c(NC(=O)C(c2ccc(-c3cncc(C(F)(F)F)c3)c(F)c2)C2CCCC2)cccc1C(C)CC(=O)O (single isomer, unassigned; stereoisomer 2) [Example 117, 3-{3-[(Cyclopentyl{3-fluoro-4-[5-(trifluoromethyl)pyridin-3-yl]phenyl}acetyl)amino]-2-methylphenyl}butanoic acid, Stereoisomer 2] | 15.6 nM | –
9 | Cc1c(CCC(=O)O)cccc1NC(=O)C(c1ccc(-c2ccc(C#N)nc2)cc1)C1CCCC1 (racemic) [Example 7, (R/S) 3-[3-({[4-(6-Cyanopyridin-3-yl)phenyl](cyclopentyl)acetyl}amino)-2-methylphenyl]propanoic acid] | 3160 nM | –
10 | COc1ccc(NC(=O)C(c2ccc(-c3cncc(C(F)(F)F)c3)cc2)C2CCCC2)c(C)c1CCC(=O)O (racemic) [Example 40, (R/S) 3-{3-[(Cyclopentyl{4-[5-(trifluoromethyl)pyridin-3-yl]phenyl}acetyl)amino]-6-methoxy-2-methylphenyl}propanoic acid] | 28.2 nM | –
11 | Cc1c(NC(=O)C(c2ccc(-c3cncc(C(F)(F)F)c3)cc2)C2CCCC2)cccc1OCC(=O)O (single isomer, unassigned; (+)) [Example 35, (+) {3-[(Cyclopentyl{4-[5-(trifluoromethyl)pyridin-3-yl]phenyl}acetyl)amino]-2-methylphenoxy}acetic acid] | 3730 nM | –
12 | COc1cncc(-c2ccc(C(C(=O)Nc3cccc(CCC(=O)O)c3C)C3CCCC3)cc2)c1 (racemic) [Example 11, (R/S) 3-[3-({Cyclopentyl[4-(5-methoxypyridin-3-yl)phenyl]acetyl}amino)-2-methylphenyl]propanoic acid] | 341 nM | –
13 | Cc1c(CCC(=O)O)cccc1NC(=O)C(c1ccc(-c2cncc(C(F)(F)F)c2)cc1)C1CC1 (racemic) [Example 32, (R/S) 3-{3-[(Cyclopropyl{4-[5-(trifluoromethyl)pyridin-3-yl]phenyl}acetyl)amino]-2-methylphenyl}propanoic acid] | 470 nM | –
14 | Cc1ncc(-c2ccc(C(C(=O)Nc3cccc(C(C)CC(=O)O)c3C)C3CCCC3)cc2F)cc1Cl (single isomer, unassigned; stereoisomer 1) [Example 121, 3-[3-({[4-(5-Chloro-6-methylpyridin-3-yl)-3-fluorophenyl](cyclopentyl)acetyl}amino)-2-methylphenyl]butanoic acid, Stereoisomer 1] | 382 nM | –
15 | Cc1c(NC(=O)C(c2ccc(-c3cncc(C(F)(F)F)c3)c(F)c2)C2CCCC2)cccc1C(C)CC(=O)O (mixture of isomers) [Example 115, (3R/S)-3-(3-{[(2R/S)-2-Cyclopentyl-2-{3-fluoro-4-[5-(trifluoromethyl)pyridin-3-yl]phenyl}acetyl]amino}-2-methylphenyl)butanoic acid] | 18.5 nM | –
16 | CCc1cncc(-c2ccc(C(C(=O)Nc3cccc(C(C)CC(=O)O)c3C)C3CCCC3)cc2)c1 (mixture of isomers) [Example 92, (3R/S)-3-[3-({(2R/S)-2-Cyclopentyl-2-[4-(5-ethylpyridin-3-yl)phenyl]acetyl}amino)-2-methylphenyl]butanoic acid] | 22 nM | –
17 | Cc1c(NC(=O)C(c2ccc(-c3cncc(Cl)c3)cc2)C2CCC2)cccc1C(C)CC(=O)O (single isomer, unassigned; stereoisomer 1) [Example 136] | 12.7 nM | –
18 | Cc1ncc(-c2ccc(C(C(=O)Nc3cccc(C(C)CC(=O)O)c3C)C3CCCC3)cc2F)cc1Cl (single isomer, unassigned; stereoisomer 2) [Example 122, 3-[3-({[4-(5-Chloro-6-methylpyridin-3-yl)-3-fluorophenyl](cyclopentyl)acetyl}amino)-2-methylphenyl]butanoic acid, Stereoisomer 2] | 22.8 nM | –
19 | Cc1c(CCC(=O)O)cccc1NC(=O)C(c1ccc(-c2cncc(C(F)(F)F)c2)cc1Cl)C1CCCC1 (racemic) [Example 161, (R/S) 3-(3-{[{2-chloro-4-[5-(trifluoromethyl)pyridin-3-yl]phenyl}(cyclopentyl)acetyl]amino}-2-methylphenyl)propanoic acid] | 278 nM | –
20 | Cc1c(CCC(=O)O)cccc1NC(=O)C(c1ccc(-c2cncc(CC(F)(F)F)c2)c(F)c1)C1CCC1 (single isomer, unassigned) [Example 205, 3-{3-[(cyclobutyl{3-fluoro-4-[5-(2,2,2-trifluoroethyl)pyridin-3-yl]phenyl}acetyl)amino]-2-methylphenyl}propanoic acid, Single Enantiomer] | 66.4 nM | –
21 | Cc1c(CC(C)C(=O)O)cccc1NC(=O)C(c1ccc(-c2cncc(C(F)(F)F)c2)cc1)C1CCCC1 (single isomer, unassigned; stereoisomer 1) [Example 69, 3-{3-[(Cyclopentyl{4-[5-(trifluoromethyl)pyridin-3-yl]phenyl}acetyl)amino]-2-methylphenyl}-2-methylpropanoic acid, Stereoisomer 1] | 8740 nM | –
22 | Cc1c(CCC(=O)O)cccc1NC(=O)C(c1ccc(-c2ccc(C(F)(F)F)nc2)cc1)C1CCCC1 (single isomer, unassigned; (-)) [Example 5, (−) 3-{3-[(Cyclopentyl{4-[6-(trifluoromethyl)pyridin-3-yl]phenyl}acetyl)amino]-2-methylphenyl}propanoic acid] | 795 nM | –

Source: patent publication US10172814B2, “Substituted pyridyl-cycloalkyl-carboxylic acids, compositions containing them and medical uses thereof” (BAYER PHARMA AKTIENGESELLSCHAFT, priority 2014, dated 2019)
